Data taken from paper PMC5760531, “Action Potential Recording and Pro-arrhythmia Risk Analysis in Human Ventricular Trabeculae” (Frontiers in Physiology, 2018).

System: human ventricular trabeculae
Assay: Action potential recording and pro-arrhythmic score analysis in human ventricular trabeculae (hVT);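 further: sharp microelectrode action potential recordings at 37°C in Tyrode-perfused trabeculae, 4 cumulative concentrations each applied 31 min, values averaged over last 30 APs, vehicle 0.1% DMSO as control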
[1] = 1Hz, 1-FOLD free ETPC (0.009µM)
[2] = 1Hz, 11-FOLD free ETPC (0.009µM)
[3] = 1Hz, 111-FOLD free ETPC (0.009µM)
[4] = 1Hz, 1111-FOLD free ETPC (0.009µM)
[5] = 2Hz, 1-FOLD free ETPC (0.009µM)
[6] = 2Hz, 11-FOLD free ETPC (0.009µM)
[7] = 2Hz, 111-FOLD free ETPC (0.009µM)
[8] = 2Hz, 1111-FOLD free ETPC (0.009µM)

## CC(C)(C)c1ccc(C(O)CCCN2CCC(C(O)(c3ccccc3)c3ccccc3)CC2)cc1 (stereo not shown) [TERFENADINE, Terfenadine]
[1]
  AMAX: 113
  AMAX percentage change compared to vehicle control: 1%
  APD30: 148
  APD30 percentage change compared to vehicle control: 4%
  APD50: 199
  APD50 percentage change compared to vehicle control: 3%
  APD90: 278
  APD90 percentage change compared to vehicle control: 1%
  Alternans: 0.70
  Alternans percentage change compared to vehicle control: 53%
  Beat Escape: 0
  Beat Escape percentage change compared to vehicle control: 0%
  EADs: 0
  EADs percentage change compared to vehicle control: 0%
  ERP: 0.45
  ERP percentage change compared to vehicle control: -2%
  Max Dispersion: 4.48
  Max Dispersion percentage change compared to vehicle control: 60%
  RMP: -89
  RMP percentage change compared to vehicle control: 1%
  Refractoriness Escape: 0
  Refractoriness Escape percentage change compared to vehicle control: 0%
  STV: 0.50
  STV percentage change compared to vehicle control: 72%
  Triangulation: 130
  Triangulation percentage change compared to vehicle control: -2%
[2]
  AMAX: 109
  AMAX percentage change compared to vehicle control: -1%
  APD30: 152
  APD30 percentage change compared to vehicle control: 6%
  APD50: 203
  APD50 percentage change compared to vehicle control: 4%
  APD90: 286
  APD90 percentage change compared to vehicle control: 3%
  Alternans: 0.62
  Alternans percentage change compared to vehicle control: 35%
  Beat Escape: 0
  Beat Escape percentage change compared to vehicle control: 0%
  EADs: 0
  EADs percentage change compared to vehicle control: 0%
  ERP: 0.44
  ERP percentage change compared to vehicle control: -3%
  Max Dispersion: 2.80
  Max Dispersion percentage change compared to vehicle control: 0%
  RMP: -86
  RMP percentage change compared to vehicle control: -2%
  Refractoriness Escape: 0
  Refractoriness Escape percentage change compared to vehicle control: 0%
  STV: 0.45
  STV percentage change compared to vehicle control: 40%
  Triangulation: 134
  Triangulation percentage change compared to vehicle control: 0%
[3]
  AMAX: 109
  AMAX percentage change compared to vehicle control: -2%
  APD30: 148
  APD30 percentage change compared to vehicle control: 4%
  APD50: 200
  APD50 percentage change compared to vehicle control: 3%
  APD90: 284
  APD90 percentage change compared to vehicle control: 2%
  Alternans: 0.52
  Alternans percentage change compared to vehicle control: 12%
  Beat Escape: 0
  Beat Escape percentage change compared to vehicle control: 0%
  EADs: 0
  EADs percentage change compared to vehicle control: 0%
  ERP: 0.45
  ERP percentage change compared to vehicle control: 0%
  Max Dispersion: 2.43
  Max Dispersion percentage change compared to vehicle control: -13%
  RMP: -85
  RMP percentage change compared to vehicle control: -3%
  Refractoriness Escape: 0
  Refractoriness Escape percentage change compared to vehicle control: 0%
  STV: 0.39
  STV percentage change compared to vehicle control: 30%
  Triangulation: 135
  Triangulation percentage change compared to vehicle control: 0%
[4]
  AMAX: 110
  AMAX percentage change compared to vehicle control: 0%
  APD30: 140
  APD30 percentage change compared to vehicle control: -2%
  APD50: 192
  APD50 percentage change compared to vehicle control: -2%
  APD90: 277
  APD90 percentage change compared to vehicle control: 0%
  Alternans: 0.60
  Alternans percentage change compared to vehicle control: 31%
  Beat Escape: 0
  Beat Escape percentage change compared to vehicle control: 0%
  EADs: 0
  EADs percentage change compared to vehicle control: 0%
  ERP: 0.46
  ERP percentage change compared to vehicle control: 2%
  Max Dispersion: 3.70
  Max Dispersion percentage change compared to vehicle control: 32%
  RMP: -87
  RMP percentage change compared to vehicle control: -1%
  Refractoriness Escape: 0
  Refractoriness Escape percentage change compared to vehicle control: 0%
  STV: 0.44
  STV percentage change compared to vehicle control: 56%
  Triangulation: 137
  Triangulation percentage change compared to vehicle control: 2%
[5]
  AMAX: 109
  AMAX percentage change compared to vehicle control: 2%
  APD30: 107
  APD30 percentage change compared to vehicle control: 8%
  APD50: 151
  APD50 percentage change compared to vehicle control: 6%
  APD90: 228
  APD90 percentage change compared to vehicle control: 2%
  Alternans: 1.31
  Alternans percentage change compared to vehicle control: 24%
  Beat Escape: 0
  Beat Escape percentage change compared to vehicle control: 0%
  EADs: 0
  EADs percentage change compared to vehicle control: 0%
  ERP: 0.48
  ERP percentage change compared to vehicle control: -3%
  Max Dispersion: 5.60
  Max Dispersion percentage change compared to vehicle control: 14%
  RMP: -87
  RMP percentage change compared to vehicle control: 1%
  Refractoriness Escape: 0
  Refractoriness Escape percentage change compared to vehicle control: 0%
  STV: 0.91
  Triangulation: 120
  Triangulation percentage change compared to vehicle control: -2%
[6]
  AMAX: 108
  AMAX percentage change compared to vehicle control: 2%
  APD30: 110
  APD30 percentage change compared to vehicle control: 11%
  APD50: 153
  APD50 percentage change compared to vehicle control: 7%
  APD90: 231
  APD90 percentage change compared to vehicle control: 4%
  Alternans: 0.97
  Alternans percentage change compared to vehicle control: -8%
  Beat Escape: 0
  Beat Escape percentage change compared to vehicle control: 0%
  EADs: 0
  EADs percentage change compared to vehicle control: 0%
  ERP: 0.47
  ERP percentage change compared to vehicle control: -6%
  Max Dispersion: 4.40
  Max Dispersion percentage change compared to vehicle control: -11%
  RMP: -86
  RMP percentage change compared to vehicle control: -1%
  Refractoriness Escape: 0
  Refractoriness Escape percentage change compared to vehicle control: 0%
  STV: 0.66
  Triangulation: 121
  Triangulation percentage change compared to vehicle control: -2%
[7]
  AMAX: 109
  AMAX percentage change compared to vehicle control: 2%
  APD30: 108
  APD30 percentage change compared to vehicle control: 10%
  APD50: 154
  APD50 percentage change compared to vehicle control: 7%
  APD90: 234
  APD90 percentage change compared to vehicle control: 4%
  Alternans: 1.28
  Alternans percentage change compared to vehicle control: 21%
  Beat Escape: 0
  Beat Escape percentage change compared to vehicle control: 0%
  EADs: 0
  EADs percentage change compared to vehicle control: 0%
  ERP: 0.48
  ERP percentage change compared to vehicle control: -2%
  Max Dispersion: 5.53
  Max Dispersion percentage change compared to vehicle control: 12%
  RMP: -85
  RMP percentage change compared to vehicle control: -2%
  Refractoriness Escape: 0
  Refractoriness Escape percentage change compared to vehicle control: 0%
  STV: 0.89
  Triangulation: 126
  Triangulation percentage change compared to vehicle control: 0%
[8]
  AMAX: 108
  AMAX percentage change compared to vehicle control: 2%
  APD30: 105
  APD30 percentage change compared to vehicle control: 5%
  APD50: 150
  APD50 percentage change compared to vehicle control: 4%
  APD90: 233
  APD90 percentage change compared to vehicle control: 3%
  Alternans: 0.96
  Alternans percentage change compared to vehicle control: -10%
  Beat Escape: 0
  Beat Escape percentage change compared to vehicle control: 0%
  EADs: 0
  EADs percentage change compared to vehicle control: 0%
  ERP: 0.48
  ERP percentage change compared to vehicle control: -3%
  Max Dispersion: 3.10
  Max Dispersion percentage change compared to vehicle control: -37%
  RMP: -85
  RMP percentage change compared to vehicle control: -2%
  Refractoriness Escape: 0
  Refractoriness Escape percentage change compared to vehicle control: 0%
  STV: 0.71
  Triangulation: 128
  Triangulation percentage change compared to vehicle control: 3%

## COc1c(N2C[C@@H]3CCCN[C@@H]3C2)c(F)cc2c(=O)c(C(=O)O)cn(C3CC3)c12 [MOXIFLOXACIN, Moxifloxacin]
At 91-fold hETPC
  EAD detection: only detected in one trabecula
